One test addresses T1, JAK3 protein (Homo sapiens, UniProt P52333).
T1 construct: purchased Carna Biosciences
T1 sequence (P52333 1-1124): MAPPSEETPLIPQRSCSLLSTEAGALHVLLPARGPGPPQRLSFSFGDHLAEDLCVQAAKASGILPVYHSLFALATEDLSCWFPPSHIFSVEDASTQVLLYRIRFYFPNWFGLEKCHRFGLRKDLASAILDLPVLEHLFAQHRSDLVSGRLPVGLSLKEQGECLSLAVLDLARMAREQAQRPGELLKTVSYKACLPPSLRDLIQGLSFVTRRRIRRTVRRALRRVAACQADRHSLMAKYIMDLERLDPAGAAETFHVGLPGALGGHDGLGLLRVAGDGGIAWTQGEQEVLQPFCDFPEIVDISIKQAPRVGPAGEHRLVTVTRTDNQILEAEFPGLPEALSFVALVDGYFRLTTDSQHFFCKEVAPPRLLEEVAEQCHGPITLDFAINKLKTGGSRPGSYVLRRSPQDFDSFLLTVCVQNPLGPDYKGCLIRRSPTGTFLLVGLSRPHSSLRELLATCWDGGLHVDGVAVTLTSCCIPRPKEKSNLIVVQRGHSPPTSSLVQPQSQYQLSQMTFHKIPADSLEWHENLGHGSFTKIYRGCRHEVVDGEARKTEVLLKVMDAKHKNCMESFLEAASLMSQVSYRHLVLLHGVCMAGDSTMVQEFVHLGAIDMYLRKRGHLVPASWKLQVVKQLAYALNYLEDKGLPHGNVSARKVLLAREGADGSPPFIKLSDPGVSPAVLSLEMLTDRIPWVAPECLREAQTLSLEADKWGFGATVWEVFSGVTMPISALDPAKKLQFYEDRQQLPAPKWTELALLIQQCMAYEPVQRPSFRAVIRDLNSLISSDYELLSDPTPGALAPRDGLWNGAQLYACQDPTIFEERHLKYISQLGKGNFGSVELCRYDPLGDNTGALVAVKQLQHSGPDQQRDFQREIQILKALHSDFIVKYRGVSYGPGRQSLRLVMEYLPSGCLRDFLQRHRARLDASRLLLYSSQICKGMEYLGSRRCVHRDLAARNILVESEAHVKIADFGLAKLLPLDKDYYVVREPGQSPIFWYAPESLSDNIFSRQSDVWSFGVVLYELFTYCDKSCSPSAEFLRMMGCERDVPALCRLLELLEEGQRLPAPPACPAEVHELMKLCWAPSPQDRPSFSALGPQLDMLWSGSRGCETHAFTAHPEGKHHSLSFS
The experiment in a line: In vitro JAK3 kinase activity assay (HTRF kinEASE TK). As to conditions: 0.75 μM ATP, 25 minutes, room temperature; read-out: IC50 JAK3 (enzyme activity assay). It counts as biochemical. On the procedure:
(§1) Recombinant human JAK1 protein was purchased from Thermo Fisher. JAK2 and JAK3 proteins were purchased from Carna Biosciences. HTRF kinEASE TK kit was purchased from Cisbio Bioassays. BioTek microplate reader Synergy Neo 2 was used to read the plate.
(§2) The test compounds were of 4-fold serial dilution, and the final concentration ranged from 10 μM to 0.04 nM in duplicates for each concentration. The concentration of DMSO in the reaction system was 1%.
The reaction included […] JAK 3 protein kinase, 1 μM TK Substrate-biotin peptide substrate, 0.75 μM ATP, 1× enzymatic buffer, 5 mM MgCl2, and 1 mM DTT. The detection plate was White Proxiplate 384-Plus plate (PerkinElmer), and the mixture (10 μl) was reacted at room temperature for 25 minutes.
(§3) Reaction detection: 10 μl of detection reagent was added to the reaction plate containing final concentration of 0.125 μM of SA-XL665 and 5 μl 1×TK-Antibody. The mixture was incubated overnight at room temperature. The plate was read using Synergy Neo 2.
(§4) Data analysis: 665/620 Ratio was converted into inhibition rate (%) through the following formula: inhibition rate (%)=(Ratiomax−Ratiotest)/(Ratiomax−Ratiomin)×100%. Ratiomax is a positive control without detection compound, Ratiomin is a negative control without detection compound and kinase, Ratiotest is the detection value of each concentration of different compounds. 4 parameter curve fitting was performed to measure the IC50 (nM) values. The details are shown in, Table 1.
A general note: TR-FRET usually uses a lanthanide donor and a delayed reading to cut background.

For test [1], the target named is T2, JAK2 (Homo sapiens, UniProt O60674). The experiment in a line: In vitro JAK2 kinase activity assay (HTRF kinEASE TK). The format is biochemical. The settings on record: 2.7 μM ATP, 25 minutes, room temperature; read-out: IC50 JAK2 (enzyme activity assay). Details: purchased Carna Biosciences. On the procedure: as §1, §2
T2 sequence (O60674 whole entry): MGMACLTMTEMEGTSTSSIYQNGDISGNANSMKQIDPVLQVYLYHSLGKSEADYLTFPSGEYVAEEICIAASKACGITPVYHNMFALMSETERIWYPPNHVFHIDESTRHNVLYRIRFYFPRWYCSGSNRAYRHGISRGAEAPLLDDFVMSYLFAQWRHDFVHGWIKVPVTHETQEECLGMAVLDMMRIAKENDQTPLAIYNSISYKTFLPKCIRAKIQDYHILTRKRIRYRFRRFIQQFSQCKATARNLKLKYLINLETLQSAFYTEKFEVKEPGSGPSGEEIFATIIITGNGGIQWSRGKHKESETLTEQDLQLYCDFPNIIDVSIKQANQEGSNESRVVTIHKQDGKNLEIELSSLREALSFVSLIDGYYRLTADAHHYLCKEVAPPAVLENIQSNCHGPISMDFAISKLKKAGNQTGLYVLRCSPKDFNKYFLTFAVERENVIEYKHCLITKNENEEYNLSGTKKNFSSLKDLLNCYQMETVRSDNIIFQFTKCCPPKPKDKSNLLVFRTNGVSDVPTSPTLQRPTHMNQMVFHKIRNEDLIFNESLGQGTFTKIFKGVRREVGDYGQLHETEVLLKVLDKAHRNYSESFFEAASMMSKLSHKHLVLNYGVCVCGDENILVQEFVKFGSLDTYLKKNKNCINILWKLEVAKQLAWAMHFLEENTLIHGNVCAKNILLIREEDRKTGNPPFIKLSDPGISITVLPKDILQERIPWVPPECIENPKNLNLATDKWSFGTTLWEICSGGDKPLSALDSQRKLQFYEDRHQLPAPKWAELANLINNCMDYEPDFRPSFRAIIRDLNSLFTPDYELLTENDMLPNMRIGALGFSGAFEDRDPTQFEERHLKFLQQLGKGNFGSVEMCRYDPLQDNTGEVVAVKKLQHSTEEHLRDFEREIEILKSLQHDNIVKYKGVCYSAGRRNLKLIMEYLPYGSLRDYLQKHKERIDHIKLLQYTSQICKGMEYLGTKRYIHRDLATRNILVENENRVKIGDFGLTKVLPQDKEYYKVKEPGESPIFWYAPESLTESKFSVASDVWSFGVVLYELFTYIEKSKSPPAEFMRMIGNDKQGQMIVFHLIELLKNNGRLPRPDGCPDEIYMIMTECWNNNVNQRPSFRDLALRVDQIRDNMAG
The reaction included 0.001 ng/μl JAK 2 protein kinase, 1 μM TK Substrate-biotin peptide substrate, 2.7 μM ATP, 1× enzymatic buffer, 5 mM MgCl2, and 1 mM DTT. The detection plate was White Proxiplate 384-Plus plate (PerkinElmer), and the mixture (10 μl) was reacted at room temperature for 25 minutes.
as §3, §4

Test [2] concerns the target T3, JAK1 (Homo sapiens, UniProt P23458). The test can be described thus: Cellular JAK1 activity assay: IL-6-stimulated STAT3 phosphorylation in TF-1 cells. The format is cell-based. Details: endogenous in cells; host or cells: TF-1 cells (ATCC). The settings on record: IL-6 (30 ng/mL), pSTAT3, read-out: IC50 Cell JAK1. On the procedure: (§5) In TF-1 cells, IL-6 stimulation leads to phosphorylation of STAT3 through JAK1, while EPO stimulants phosphorylation of STAT5 via JAK2.
(§6) TF-1 cells were obtained from American Type Culture Collection (ATCC). TF-1 cells were starved overnight (cell density was 100,000 cells/well at plating) in OptiMEM medium without phenol red containing 0.5% fetal bovine serum (FBS), 0.1 mM non-essential amino acids (NEAA), 1 mM sodium pyruvate at 37° C. The compound was serially diluted in DMSO, added to TF-1 cells and incubated at 37° C. for 20 minutes. The final concentration of DMSO was 0.2%. Then, human recombinant cytokine IL-6 (30 ng/mL) or EPO (10 U/mL) was added to the wells containing TF-1 cells. After the cell plate was incubated for 30 minutes, cells were lysed, and the phosphorylation of STAT3 (IL-6) or STAT5 (EPO) in the cell lysate (pSTAT3/total STAT3 Elisa Kit: CST #7300C/CST #7305C; pSTAT5 and total STAT5 Elisa Kit: Abcam #ab205715) was measured. The IC50 value was determined as the concentration of the compound required to inhibit STAT phosphorylation by 50% relative to the measured DMSO control.

The target in test [3] is T2, JAK2. The test can be described thus: Cellular JAK2 activity assay: EPO-stimulated STAT5 phosphorylation in TF-1 cells. It counts as cell-based. The arrangement: endogenous in cells; host or cells: TF-1 cells (ATCC). As to conditions: EPO (10 U/mL), pSTAT5, read-out: IC50 Cell JAK2. On the procedure:
as §5, §6

The target in test [4] is T3, JAK1. The test can be described thus: In vitro JAK1 kinase activity assay (HTRF kinEASE TK). The format is biochemical. The arrangement: purchased Thermo Fisher. The settings on record: 1.1 μM ATP, 60 minutes, room temperature; read-out: IC50 JAK1 (enzyme activity assay). On the procedure:
as §1, §2
The reaction included 0.5 ng/μl JAK 1 protein kinase, 1 μM TK Substrate-biotin peptide substrate, 1.1 μM ATP, 1× enzymatic buffer, 5 mM MgCl2, 1 mM MnCl2, 1 mM DTT, and 2.5 nM SEB. The detection plate was White Proxiplate 384-Plus plate (PerkinElmer), and the mixture (10 μl) was reacted at room temperature for 60 minutes.
as §3, §4

The term IC50 denotes the concentration at which inhibition is half-maximal.

T3 sequence (P23458 whole entry): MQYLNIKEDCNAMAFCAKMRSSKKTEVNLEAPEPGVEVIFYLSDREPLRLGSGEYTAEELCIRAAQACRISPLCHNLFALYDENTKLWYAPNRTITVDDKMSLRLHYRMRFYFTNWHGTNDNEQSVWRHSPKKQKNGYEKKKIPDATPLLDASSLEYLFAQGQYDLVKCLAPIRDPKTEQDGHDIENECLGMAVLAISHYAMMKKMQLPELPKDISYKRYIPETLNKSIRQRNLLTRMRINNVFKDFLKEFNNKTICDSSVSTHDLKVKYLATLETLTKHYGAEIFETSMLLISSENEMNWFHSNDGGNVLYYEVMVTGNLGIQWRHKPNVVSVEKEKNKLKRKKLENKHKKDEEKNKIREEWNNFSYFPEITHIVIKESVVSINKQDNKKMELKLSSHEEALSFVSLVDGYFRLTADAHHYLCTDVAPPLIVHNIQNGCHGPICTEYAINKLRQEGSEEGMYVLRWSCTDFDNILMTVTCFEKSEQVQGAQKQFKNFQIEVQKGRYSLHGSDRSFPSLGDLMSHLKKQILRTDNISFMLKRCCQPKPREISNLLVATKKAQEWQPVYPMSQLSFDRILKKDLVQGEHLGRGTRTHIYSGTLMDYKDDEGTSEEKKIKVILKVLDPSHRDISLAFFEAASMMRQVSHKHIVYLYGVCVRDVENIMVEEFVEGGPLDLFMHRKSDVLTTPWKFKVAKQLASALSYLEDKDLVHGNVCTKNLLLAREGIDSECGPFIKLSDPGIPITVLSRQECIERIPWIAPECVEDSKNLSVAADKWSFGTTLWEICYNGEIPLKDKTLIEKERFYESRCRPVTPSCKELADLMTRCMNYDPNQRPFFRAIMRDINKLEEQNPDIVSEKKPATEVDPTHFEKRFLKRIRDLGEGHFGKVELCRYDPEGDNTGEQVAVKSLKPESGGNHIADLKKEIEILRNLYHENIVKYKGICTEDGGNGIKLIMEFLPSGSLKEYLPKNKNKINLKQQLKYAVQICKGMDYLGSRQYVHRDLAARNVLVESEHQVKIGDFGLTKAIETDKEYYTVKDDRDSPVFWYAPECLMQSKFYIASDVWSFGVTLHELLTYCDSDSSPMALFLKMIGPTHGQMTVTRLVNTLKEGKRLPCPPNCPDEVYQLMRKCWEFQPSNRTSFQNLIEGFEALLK

For `CCC(C(=O)Nc1nccc2c(-c3nc(Nc4cn(C)nc4OC)ncc3C)c[nH]c12)N1CCC(O)C1` (stereo not drawn) [Example 8], the IC50 is less than 500 nM at JAK3 protein; less than 100 nM on JAK2 [1]; 100 to 1000 nM at JAK1 [2]; more than 20000 nM on JAK2 [3]; 5 to 50 nM on JAK1 [4].

Turning to `COCCNC(=O)Nc1nccc2c(-c3nc(Nc4cccc(S(C)(=O)=O)c4F)ncc3C)c[nH]c12` [Example 32], the concentration for half-maximal inhibition (IC50) on JAK3 protein is less than 500 nM; on JAK2 [1], less than 100 nM; on JAK1 [2], more than 1000 nM; at JAK2 [3] it was more than 20000 nM; at JAK1 [4], less than 5 nM.

`CC[C@@H](C(=O)Nc1nccc2c(-c3nc(Nc4cn(C)nc4OC)ncc3C)c[nH]c12)N1CCN(C)CC1` [Example 3, (S)—N-(3-(2-((3-Methoxy-1-methyl-1H-pyrazol-4-yl)amino)-5-methylpyrimidin-4-yl)-1H-pyrrolo[2,3-c]pyridin-7-yl)-2-(4-methylpiperazin-1-yl)butanamide]: the IC50 was less than 500 nM at JAK3 protein; less than 100 nM at JAK2 [1]; less than 100 nM at JAK1 [2]; less than 10000 nM at JAK2 [3]; 5 to 50 nM at JAK1 [4].

For the molecule `COc1nn(C)cc1Nc1ncc(C)c(-c2c[nH]c3c(Nc4cn(C)nc4OC)nccc23)n1` [Example 5, N-(3-Methoxy-1-methyl-1H-pyrazol-4-yl)-3-(2-((3-methoxy-1-methyl-1H-pyrazole-4-yl)amino)-5-methylpyrimidin-4-yl)-1H-pyrrolo[2,3-c]pyridin-7-amine], the 50% inhibitory concentration (IC50) at JAK3 protein is less than 500 nM; on JAK2 [1] it was less than 100 nM; on JAK1 [2], 100 to 1000 nM; on JAK2 [3] it was more than 20000 nM; on JAK1 [4] it was 5 to 50 nM.

For the molecule `CCC(C(=O)Nc1nccc2c(-c3nc(Nc4cn(C)nc4OC)ncc3C)c[nH]c12)N1CCN(C)CC1` (stereo not drawn) [Example 2, N-(3-(2-((3-Methoxy-1-methyl-1H-pyrazol-4-yl)amino)-5-methylpyrimidin-4-yl)-1H-pyrrolo[2,3-c]pyridin-7-yl)-2-(4-methylpiperazin-1-yl)butanamide], the IC50 at JAK3 protein was less than 500 nM; at JAK2 [1], less than 100 nM; at JAK1 [2], less than 100 nM; on JAK2 [3], less than 10000 nM; at JAK1 [4], 5 to 50 nM.

Regarding `CCC(C(=O)Nc1nccc2c(-c3nc(Nc4cccc(S(C)(=O)=O)c4F)ncc3C)c[nH]c12)N1CC2(CCN(C)CC2)C1` (stereo not drawn) [Example 24, N-(3-(2-((2-Fluoro-3-(methylsulfonyl)phenyl)amino)-5-methylpyrimidin-4-yl)-1H-pyrrolo[2,3-c]pyridin-7-yl)-2-(7-methyl-2,7-diazaspiro[3.5]nonane-2-yl)butanamide], the IC50 at JAK3 protein is 500 to 10000 nM; at JAK2 [1] it was 100 to 10000 nM; on JAK1 [2], 100 to 1000 nM; at JAK2 [3], more than 20000 nM; on JAK1 [4], 5 to 50 nM.

As for `CCC(C(=O)Nc1nccc2c(-c3nc(Nc4cccc(S(C)(=O)=O)c4F)ncc3C)c[nH]c12)N1CCN(C)CC1` (stereo not drawn) [Example 19, N-(3-(2-((2-Fluoro-3-(methylsulfonyl)phenyl)amino)-5-methylpyrimidin-4-yl)-1H-pyrrolo[2,3-c]pyridin-7-yl)-2-(4-methylpiperazin-1-yl)butanamide], the IC50 at JAK3 protein was 500 to 10000 nM; at JAK2 [1], 100 to 10000 nM; at JAK1 [2], 100 to 1000 nM; on JAK2 [3], more than 20000 nM; at JAK1 [4], less than 5 nM.

Take `CCC(C(=O)Nc1nccc2c(-c3nc(Nc4cccc(S(=O)(=O)CC)c4F)ncc3C)c[nH]c12)N1CCN(C)CC1` (stereo not drawn) [Example 28]: the IC50 on JAK3 protein was 500 to 10000 nM; at JAK2 [1] it was less than 100 nM; at JAK1 [2] it was 100 to 1000 nM; on JAK2 [3], 10000 to 20000 nM; at JAK1 [4], less than 5 nM.

As for `COc1nn(C)cc1Nc1ncc(C)c(-c2c[nH]c3c(NC(=O)[C@@H](C)N4CCOCC4)nccc23)n1` [Example 7], the IC50 was less than 500 nM on JAK3 protein; less than 100 nM at JAK2 [1]; 100 to 1000 nM at JAK1 [2]; 10000 to 20000 nM at JAK2 [3]; 5 to 50 nM at JAK1 [4].

Regarding `CCC(C(=O)Nc1nccc2c(-c3nc(Nc4cccc(S(C)(=O)=O)c4F)ncc3C)c[nH]c12)N1CC2CCC(C1)N2C` (stereo not drawn) [Example 23, N-(3-(2-((2-Fluoro-3-(methylsulfonyl)phenyl)amino)-5-methylpyrimidin-4-yl)-1H-pyrrolo[2,3-c]pyridin-7-yl)-2-(8-methyl-3,8-diazabicyclo[3.2.1]octane-3-yl)butanamide], the IC50 was 500 to 10000 nM at JAK3 protein; 100 to 10000 nM on JAK2 [1]; 100 to 1000 nM on JAK1 [2]; 10000 to 20000 nM on JAK2 [3]; 5 to 50 nM on JAK1 [4].

On to `COc1nn(C)cc1Nc1ncc(C)c(-c2c[nH]c3c(NC(N)=O)nccc23)n1` [Example 12], for which the concentration for half-maximal inhibition (IC50) is less than 500 nM on JAK3 protein; less than 100 nM on JAK2 [1]; less than 100 nM at JAK1 [2]; less than 10000 nM on JAK2 [3]; less than 5 nM on JAK1 [4].

On to `CCC(C(=O)Nc1nccc2c(-c3nc(Nc4cccc(S(C)(=O)=O)c4F)ncc3F)c[nH]c12)N1CCN(C)CC1` (stereo not drawn) [Example 27, N-(3-(5-Fluoro-2-((2-fluoro-3-(methylsulfonyl)phenyl)amino)pyrimidin-4-yl)-1H-pyrrolo[2,3-c]pyridin-7-yl)-2-(4-methylpiperazin-1-yl) butanamide], for which the IC50 on JAK3 protein is 500 to 10000 nM; on JAK2 [1], 100 to 10000 nM; at JAK1 [2] it was 100 to 1000 nM; on JAK2 [3], more than 20000 nM; at JAK1 [4] it was less than 5 nM.

Source of the values: patent US12234232B2, “Aromatic heterocyclic compound with kinase inhibitory activity” (SHANGHAI ENNOVABIO PHARMACEUTICALS CO., LTD., priority 2018, dated 2025).
